Where two headings read alike, the source gives them in different places.
Columns and labels:
MV4-11 cells = experiment: MV4-11 cell proliferation assay (CTG cell viability); assay type: cell-based; conditions: 120 hours, read-out: CTG cell viability assay_MV4-11: IC50
Experimental: MV4-11 Cell Proliferation Assay
The following is an example of an assay that can be used to determine the dose-dependent, anti-proliferative activity of CK1α degradating compounds in an AML cell line such as MV4-11 (ATCC Cat #CRL-9591).
MV4-11 cells were seeded into a 384-well plate (Cat #3764, Corning) pre-spotted with DMSO or test compounds. Increasing concentrations of test compounds (ranging from 1×10^−3 μM to 10 μM at a 3.162-fold increment in a 10-point dose response assay; ranging from 3.162×10^−4 μM to 10 μM at a 3.162-fold increment in a 11-point dose response assay) or DMSO were dispensed into an empty 384-well plate using an a D300e digital dispenser (Tecan) or an Echo Acoustic Liquid Handler (Beckman Coulter). About 2,000 cells in 50 μL of culture media (IMDM plus 10% heat-inactivated FBS) were seeded per well. Assay plates were incubated at 37° C. with 5% CO2 for 120 hours. After that, 20 μL of the CellTiter-Glo Luminescent Cell Viability Assay Reagent (Cat #G7573, Promega) was added to each well and incubated at room temperature for 30 minutes. Luminescence was then measured with an EnVision plate reader (PerkinElmer) or a PHERAstar plate reader (BMG LABTECH). All cell growth inhibition curves were processed using Collaborative Drug Discovery Vault softwares (Burlingame, CA, www.collaborativedrug.com).
Cell viability reads in compound-treated wells were normalized to that of DMSO control and expressed as Percent of Control (PoC, y). A four Parameter Logistic Model was used to determine the compound's EC50 and DC50, using the following equation:
[formula] • A==lowest cell viability read normalized to DMSO control in response to compound treatment, as determined by curve fit • B=cell viability read in DMSO control • C=EC50 • D=Hill Slope • x=compound concentration • EC50=the concentration of compound when y=(B−A)/2 • IC50=the concentration of the compound when y=50% of DMSO control • y=cell viability read normalized to DMSO control Ymin=(A/B)*100% • Ymin represents the lowest cell viability % that can be achieved by the compound treatment in the assay.

HiBiT tagged GSPT1 = HiBiT tagged GSPT1 (Homo sapiens, UniProt P15170+Q96SW2); experiment: GSPT1 degradation assay (HiBiT assay); assay type: cell-based; conditions: 20 hours, maximum GSPT1 degradation; for Dmax: HT-1080, HT-1080 cells; for HiBiT GSPT1: Dmax: HT-1080 cells
In short: (§1)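 HT-1080 cells stably expressing wild-type CRBN, GSPT1A(1-138)/G575N and HiBiT-tagged CK1α or GSPT1, ~10,000/well, treated with compound from 3.162×10^-4 μM to 10 μM (3.16-fold steps). HiBiT luminescence normalized to DMSO as percent of control.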

HiBiT tagged CK1α = HiBiT tagged CK1α (Homo sapiens, UniProt P48729+Q96SW2); experiment: CK1α degradation assay (HiBiT assay); assay type: cell-based; conditions: 20 hours; for Dmax: HT-1080, HT-1080 cells; for Dmax / HiBiT CK1α: Dmax: maximum CK1α degradation; for DC50 / HiBiT CK1α: Dmax: HT-1080 cells; for DC50: concentration at 50% CK1α degradation
In short: as §1

[1] = Pharmacokinetic study of single intravenous and oral administration in mouse; assay type: in vivo; conditions: for C0 / clearance / half-life / Vd / AUC(0-inf) / Cmax / Tmax: plasma; for Vd: read-out: Vss
Experimental: The pharmacokinetic study of single intravenous and oral administration in mouse Sample collection and preparation: After intravenous injection or oral administration of test compounds, blood samples were collected and the blood collection time was recorded. After the blood sample was collected, it was immediately transferred into a labeled centrifuge tube containing K2-EDTA, followed by centrifugation and plasma collection. The plasma was then transferred into a pre-cooled centrifuge tube, quickly frozen on dry ice, and stored in an ultra-low temperature refrigerator at −70±10° C. until the LC-MS/MS analysis was performed.
Pharmacokinetic data analysis: The pharmacokinetic software was used to process the plasma drug concentration data of the compound in a non-compartmental model. The peak concentration (Cmax), peak time (Tmax) and quantifiable end time can be directly obtained from the plasma concentration-time diagram. The log-linear trapezoidal method was used to calculate the following pharmacokinetic parameters: half-life (T1/2), apparent volume of distribution (Vdss) and clearance (Cl), and the area under the time-plasma concentration curve (AUC0-inf) from the 0 point to the end point.

HiBiT tagged CK1α, sequence (P48729 whole entry): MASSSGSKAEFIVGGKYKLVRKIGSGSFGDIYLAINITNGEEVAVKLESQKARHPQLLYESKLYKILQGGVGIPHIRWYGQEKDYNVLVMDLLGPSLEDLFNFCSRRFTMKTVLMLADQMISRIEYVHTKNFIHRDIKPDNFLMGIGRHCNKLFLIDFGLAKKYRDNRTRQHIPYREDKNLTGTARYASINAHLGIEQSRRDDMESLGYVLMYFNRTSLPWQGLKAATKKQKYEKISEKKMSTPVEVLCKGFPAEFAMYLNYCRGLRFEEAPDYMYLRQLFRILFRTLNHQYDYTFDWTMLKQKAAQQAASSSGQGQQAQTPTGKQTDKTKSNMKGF
HiBiT tagged CK1α, sequence (Q96SW2 whole entry): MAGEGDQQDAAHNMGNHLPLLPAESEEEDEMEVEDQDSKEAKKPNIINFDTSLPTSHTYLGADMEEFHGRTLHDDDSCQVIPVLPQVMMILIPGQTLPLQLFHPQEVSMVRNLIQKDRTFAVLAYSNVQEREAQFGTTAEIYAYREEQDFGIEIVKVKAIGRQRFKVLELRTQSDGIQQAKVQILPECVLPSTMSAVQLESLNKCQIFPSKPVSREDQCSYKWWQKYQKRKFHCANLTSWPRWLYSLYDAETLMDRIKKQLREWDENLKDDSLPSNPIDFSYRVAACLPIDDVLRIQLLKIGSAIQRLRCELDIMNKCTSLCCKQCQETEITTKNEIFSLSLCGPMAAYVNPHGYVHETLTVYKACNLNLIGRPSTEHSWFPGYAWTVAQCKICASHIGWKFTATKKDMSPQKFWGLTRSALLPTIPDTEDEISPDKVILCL
HiBiT tagged CK1α, sequence (Q16531 whole entry partner): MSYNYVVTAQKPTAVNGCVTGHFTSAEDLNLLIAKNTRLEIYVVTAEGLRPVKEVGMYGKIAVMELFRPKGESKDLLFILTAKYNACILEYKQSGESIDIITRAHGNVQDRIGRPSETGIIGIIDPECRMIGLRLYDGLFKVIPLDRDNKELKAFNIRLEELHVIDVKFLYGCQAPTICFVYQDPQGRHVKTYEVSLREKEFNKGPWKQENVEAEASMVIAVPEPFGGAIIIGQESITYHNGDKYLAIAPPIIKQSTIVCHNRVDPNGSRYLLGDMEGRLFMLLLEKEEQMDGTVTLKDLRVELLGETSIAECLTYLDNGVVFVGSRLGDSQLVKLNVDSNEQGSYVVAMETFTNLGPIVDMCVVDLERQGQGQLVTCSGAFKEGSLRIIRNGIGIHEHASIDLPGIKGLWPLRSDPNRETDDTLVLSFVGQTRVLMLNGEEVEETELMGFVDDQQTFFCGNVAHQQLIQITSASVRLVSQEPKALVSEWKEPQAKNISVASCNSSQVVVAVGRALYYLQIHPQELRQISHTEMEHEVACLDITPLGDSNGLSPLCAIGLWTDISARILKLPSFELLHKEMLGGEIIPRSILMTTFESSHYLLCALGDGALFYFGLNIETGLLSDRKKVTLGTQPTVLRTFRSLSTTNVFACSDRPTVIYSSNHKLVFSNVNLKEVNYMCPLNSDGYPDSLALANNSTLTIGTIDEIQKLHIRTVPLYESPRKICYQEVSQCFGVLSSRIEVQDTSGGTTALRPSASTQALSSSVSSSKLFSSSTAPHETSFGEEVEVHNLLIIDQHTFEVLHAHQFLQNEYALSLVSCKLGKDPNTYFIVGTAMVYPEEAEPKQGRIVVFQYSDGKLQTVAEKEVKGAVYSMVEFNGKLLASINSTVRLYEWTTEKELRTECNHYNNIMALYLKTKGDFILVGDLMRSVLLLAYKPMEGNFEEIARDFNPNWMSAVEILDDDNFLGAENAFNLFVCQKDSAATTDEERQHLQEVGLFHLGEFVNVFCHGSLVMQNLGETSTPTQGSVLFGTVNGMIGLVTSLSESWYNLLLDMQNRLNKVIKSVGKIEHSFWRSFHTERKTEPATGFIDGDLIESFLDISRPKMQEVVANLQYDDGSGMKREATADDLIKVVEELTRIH
HiBiT tagged GSPT1, sequence (P15170 whole entry): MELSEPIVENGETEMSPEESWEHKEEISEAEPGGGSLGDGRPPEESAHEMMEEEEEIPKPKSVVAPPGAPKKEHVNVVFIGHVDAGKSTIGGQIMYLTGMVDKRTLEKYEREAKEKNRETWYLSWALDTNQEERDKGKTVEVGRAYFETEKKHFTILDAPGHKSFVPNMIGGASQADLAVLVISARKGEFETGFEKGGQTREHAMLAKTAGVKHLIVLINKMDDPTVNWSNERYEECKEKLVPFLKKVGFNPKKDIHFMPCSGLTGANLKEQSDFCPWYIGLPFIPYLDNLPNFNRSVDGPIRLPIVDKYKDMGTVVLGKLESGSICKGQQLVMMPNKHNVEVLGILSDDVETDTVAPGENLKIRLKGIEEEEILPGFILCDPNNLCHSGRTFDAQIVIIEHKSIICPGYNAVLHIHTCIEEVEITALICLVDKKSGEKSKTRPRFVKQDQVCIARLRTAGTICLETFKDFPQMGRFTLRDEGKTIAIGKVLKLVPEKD
HiBiT tagged GSPT1, sequence (Q96SW2 whole entry): as the sequence (Q96SW2 whole entry) above
HiBiT tagged GSPT1, sequence (Q16531 whole entry partner): as the sequence (Q16531 whole entry partner) above

IC50 (MV4-11 cells; Homo sapiens) [µM] | Dmax (HiBiT tagged GSPT1) [%] | Dmax (HiBiT tagged CK1α) [%] | DC50 (HiBiT tagged CK1α) [µM] | Structure (SMILES) | also measured
0.024 | 15.2 | 72.4 | 0.0741 | Cn1cc(-c2cccnc2[C@@H](NC(=O)c2ccc3c(c2)CN([C@H]2CCC(=O)NC2=O)C3=O)C2CCC2)cn1 (single isomer, unassigned) [Compound 84, N—((*S)-cyclobutyl(3-(1-methyl-1H-pyrazol-4-yl)pyridin-2-yl)methyl)-2-((S)-2,6-dioxopiperidin-3-yl)-1-oxoisoindoline-5-carboxamide] | –
0.198 | 17.3 | 69 | 0.148 | O=C1CCC(N2Cc3cc(C(=O)N[C@H](c4ncc(Cl)cc4F)C4(F)CCC4)ccc3C2=O)C(=O)N1 (stereo in doubt) [Compound 89, N-((*R)-(5-chloro-3-fluoropyridin-2-yl)(1-fluorocyclobutyl)methyl)-2-(2,6-dioxopiperidin-3-yl)-1-oxoisoindoline-5-carboxamide] | –
0.176 | 20.4 | 65.9 | 0.274 | O=C1CCC(N2Cc3cc(C(=O)N[C@H](c4ncc(Cl)cc4Cl)C4CCC4)ccc3C2=O)C(=O)N1 (stereo in doubt) [Compound 79, N-((*S)-cyclobutyl(3,5-dichloropyridin-2-yl)methyl)-2-(2,6-dioxopiperidin-3-yl)-1-oxoisoindoline-5-carboxamide] | –
0.06 | 16.2 | 66.3 | – | O=C1CC[C@H](N2Cc3cc(C(=O)N[C@H](c4ccc(Cl)cn4)C4CCC4)ccc3C2=O)C(=O)N1 (single isomer, unassigned) [Compound 82] | C0 ([1]; 2 mg/kg, IV): 6.8 µg/mL; clearance ([1]; 2 mg/kg, IV): 0.63 L/h/kg; half-life ([1]; 2 mg/kg, IV): 1.34 h; Vd ([1]; 2 mg/kg, IV): 0.85 L/kg; AUC(0-inf) ([1]; 10 mg/kg, PO): 13.3 µg·h/mL; Cmax ([1]; 10 mg/kg, PO): 6.08 µg/mL; Tmax ([1]; 10 mg/kg, PO): 0.67 h; half-life ([1]; 10 mg/kg, PO): 2.03 h
0.142 | 18.2 | 63 | 0.193 | O=C1CCC(N2Cc3cc(C(=O)N[C@H](c4ccc(F)cn4)C4(F)CCC4)ccc3C2=O)C(=O)N1 (stereo in doubt) [Compound 86, 2-(2,6-dioxopiperidin-3-yl)-N-((*R)-(1-fluorocyclobutyl)(5-fluoropyridin-2-yl)methyl)-1-oxoisoindoline-5-carboxamide] | F ([1]; 10 mg/kg, PO): 70.4%; C0 ([1]; 2 mg/kg, IV): 4.91 µg/mL; clearance ([1]; 2 mg/kg, IV): 0.471 L/h/kg; half-life ([1]; 2 mg/kg, IV): 3.62 h; Vd ([1]; 2 mg/kg, IV): 0.87 L/kg; AUC(0-inf) ([1]; 10 mg/kg, PO): 14.9 µg·h/mL; Cmax ([1]; 10 mg/kg, PO): 5.69 µg/mL; Tmax ([1]; 10 mg/kg, PO): 0.5 h; half-life ([1]; 10 mg/kg, PO): 2.12 h
0.133 | 25 | 59.8 | 0.279 | O=C1CCC(N2Cc3cc(C(=O)N[C@H](c4ncccc4Cl)C4(F)CCC4)ccc3C2=O)C(=O)N1 (stereo in doubt) [Compound 87, N-[(*R)-(3-chloro-2-pyridyl)-(1-fluorocyclobutyl)methyl]-2-(2,6-dioxo-3-piperidyl)-1-oxo-isoindoline-5-carboxamide] | –
0.027 | 14.4 | 66 | 0.115 | O=C1CCC(N2Cc3cc(C(=O)N[C@H](c4ncccc4-c4ccc(F)cc4)C4CCC4)ccc3C2=O)C(=O)N1 (stereo in doubt) [Compound 83, N—((*S)-cyclobutyl(3-(4-fluorophenyl)pyridin-2-yl)methyl)-2-(2,6-dioxopiperidin-3-yl)-1-oxoisoindoline-5-carboxamide] | –
0.176 | 14.4 | 67.2 | 0.198 | O=C1CCC(N2Cc3cc(C(=O)N[C@H](c4ccc(F)cn4)C4CCC4)ccc3C2=O)C(=O)N1 (stereo in doubt) [Compound 78, N-((*S)-cyclobutyl(5-fluoropyridin-2-yl)methyl)-2-(2,6-dioxopiperidin-3-yl)-1-oxoisoindoline-5-carboxamide] | –

The next lines start with the compound.

Structure (SMILES) | IC50 (MV4-11 cells; Homo sapiens) [µM] | Dmax (HiBiT tagged GSPT1) [%] | Dmax (HiBiT tagged CK1α) [%] | DC50 (HiBiT tagged CK1α) [µM] | also measured
O=C1CC[C@H](N2Cc3cc(C(=O)N[C@H](c4ccc(F)cc4)C4CCC4)ccc3C2=O)C(=O)N1 (single isomer, unassigned) [Compound 9, N—((*S)-cyclobutyl(4-fluorophenyl)methyl)-2-((S)-2,6-dioxopiperidin-3-yl)-1-oxoisoindoline-5-carboxamide] | 0.172 | 22.6 | 71.6 | 0.116 | –
O=C1CCC(N2Cc3cc(C(=O)N[C@H](c4ccc(F)cc4F)C4CCC4)ccc3C2=O)C(=O)N1 (stereo in doubt) [Compound 41, N-((*S)-cyclobutyl(2,4-difluorophenyl)methyl)-2-(2,6-dioxopiperidin-3-yl)-1-oxoisoindoline-5-carboxamide] | 0.115 | 24.9 | 70.5 | 0.0824 | F ([1]; 10 mg/kg, PO): 76.8%; C0 ([1]; 2 mg/kg, IV): 1.86 µg/mL; clearance ([1]; 2 mg/kg, IV): 1.38 L/h/kg; half-life ([1]; 2 mg/kg, IV): 2.84 h; Vd ([1]; 2 mg/kg, IV): 3.2 L/kg; AUC(0-inf) ([1]; 10 mg/kg, PO): 5.87 µg·h/mL; Cmax ([1]; 10 mg/kg, PO): 1.57 µg/mL; Tmax ([1]; 10 mg/kg, PO): 0.83 h; half-life ([1]; 10 mg/kg, PO): 2.72 h
O=C1CCC(N2Cc3cc(C(=O)N[C@H](c4ccc(Cl)cn4)C4CCC4)ccc3C2=O)C(=O)N1 (stereo in doubt) [Compound 76, N—((*S)-(5-chloropyridin-2-yl)(cyclobutyl)methyl)-2-(2,6-dioxopiperidin-3-yl)-1-oxoisoindoline-5-carboxamide] | – | – | – | 0.219 | IC50 (MV4-11 cells): 0.071 µM; HiBiT GSPT1: Dmax (HiBiT tagged GSPT1): 23.5%; HiBiT CK1α: Dmax (HiBiT tagged CK1α): 64.4%
O=C1CC[C@@H](N2Cc3cc(C(=O)N[C@H](c4ccc(F)cc4)C4CCC4)ccc3C2=O)C(=O)N1 (relative stereo) [Compound 8, N—((*S)-cyclobutyl(4-fluorophenyl)methyl)-2-((R)-2,6-dioxopiperidin-3-yl)-1-oxoisoindoline-5-carboxamide] | – | – | – | 0.16 | IC50 (MV4-11 cells): 0.205 µM; HiBiT GSPT1: Dmax (HiBiT tagged GSPT1): 23.4%; HiBiT CK1α: Dmax (HiBiT tagged CK1α): 72.9%
O=C1CCC(N2Cc3cc(C(=O)N[C@@H](c4ccc(F)cc4)C4CC(F)(F)C4)ccc3C2=O)C(=O)N1 (single isomer, unassigned) [Compound 5] | 0.363 | 30.3 | 75.9 | – | –
O=C1CCC(N2Cc3cc(C(=O)N[C@@H](c4ccc(F)cc4F)C4CCC4)ccc3C2=O)C(=O)N1 (stereo in doubt) [Compound 42, N-((*R)-cyclobutyl(2,4-difluorophenyl)methyl)-2-(2,6-dioxopiperidin-3-yl)-1-oxoisoindoline-5-carboxamide] | 0.42 | 40.8 | 57.7 | 1.15 | –
O=C1CCC(N2Cc3cc(C(=O)N[C@H](c4ccc(F)cc4)C4CC(F)(F)C4)ccc3C2=O)C(=O)N1 (single isomer, unassigned) [Compound 6] | 0.691 | 30.1 | 60.9 | – | –
O=C1CCC(N2Cc3cc(C(=O)N[C@H](c4ccc(Cl)cc4)C4CCC4)ccc3C2=O)C(=O)N1 (stereo in doubt) [Compound 36, N-((*S)-(4-chlorophenyl)(cyclobutyl)methyl)-2-(2,6-dioxopiperidin-3-yl)-1-oxoisoindoline-5-carboxamide] | 0.128 | 24.6 | 65.8 | 0.0667 | –

Source: US12673936B2, “Isoindolinone compounds, and uses thereof” (HANGZHOU GLUBIO PHARMACEUTICAL CO., LTD., priority 2021, dated 2026)
